{
  "source": "the pKa sets of Baltruschat and Czodrowski (2020)",
  "data": [
    {"conditions": "basic group", "values": [
      {"smiles": "CC[NH+](CC)CCNc1nc(C)nc(Nc2ccc(Cl)cc2)n1", "pKa": 4.02},
      {"smiles": "C[C@H](N)Cc1ccc(O)cc1", "pKa": 9.3},
      {"smiles": "C[NH2+]CCNCCN", "pKa": 9.57},
      {"smiles": "Cc1nccc2c1[nH]c1cc(O)ccc12", "pKa": 7.39},
      {"smiles": "COc1cccc(Nc2ccccc2)c1", "pKa": 0.37},
      {"smiles": "Nc1cccc2c(O)cccc12", "pKa": 4.15},
      {"smiles": "Nc1cc[nH]n1", "pKa": 4.11},
      {"smiles": "C=CCNCCCCCCCCCCC(=O)[O-]", "pKa": 9.3},
      {"smiles": "CC(C)SCCN", "pKa": 9.23},
      {"smiles": "CCCn1ccnc1C=O", "pKa": 5.15},
      {"smiles": "COc1ccc(Cl)c2cccnc12", "pKa": 4.13},
      {"smiles": "OCc1cc(-c2ccccc2)nnc1NCCN1CCOCC1", "pKa": 6.99},
      {"smiles": "Oc1ccc(/C=N/c2ncc3nc[nH]c3n2)cc1", "pKa": 3.27},
      {"smiles": "CCC1=NCCC1", "pKa": 7.91},
      {"smiles": "CN(C)c1ccc(/C=N/c2ncc3nc[nH]c3n2)cc1", "pKa": 5.26},
      {"smiles": "[O-]c1ncnc2cccnc12", "pKa": 8.95},
      {"smiles": "CN1CCOCC1", "pKa": 7.66},
      {"smiles": "CN(C)CCCCCCCCCNC(=O)/C=N/[O-]", "pKa": 10.5},
      {"smiles": "CN(CCC[NH3+])CCC[NH3+]", "pKa": 6.45},
      {"smiles": "CC(C)(C)c1ccc(C(O)CCCN2CCC(C(O)(c3ccccc3)c3ccccc3)CC2)cc1", "note": "(stereo not drawn)", "pKa": 8.6},
      {"smiles": "O=Cc1ccc(-c2ncc(-c3ccccc3)o2)cc1", "pKa": 0.02},
      {"smiles": "NCC(=O)O", "pKa": 9.67},
      {"smiles": "CCNCC[NH2+]CC", "pKa": 7.7},
      {"smiles": "NCCCC[NH3+]", "pKa": 9.36},
      {"smiles": "CC(C)CCNc1ncnc2[nH]ncc12", "pKa": 4.62},
      {"smiles": "COC(=O)[C@@H](N)Cc1c[nH]cn1", "pKa": 7.33},
      {"smiles": "CC1=Nc2ccc([N+](=O)[O-])cc2N=C(C)C1", "pKa": 4.95},
      {"smiles": "CCCCOC(=N)c1ccccc1", "pKa": 6.09},
      {"smiles": "CCC(C)(C)NC(C)(C)CC", "pKa": 11.6},
      {"smiles": "Nc1ncnc([S-])c1N", "pKa": 9.34},
      {"smiles": "C=C(C(=O)O[C@H]1C[C@@H]2[C@@H]3O[C@@H]3[C@H](C1)N2C)c1ccccc1", "pKa": 7.72},
      {"smiles": "CNC[C@H](O)c1cccc(O)c1", "pKa": 8.77},
      {"smiles": "c1coc(CNCC[NH2+]Cc2ccco2)c1", "pKa": 5.74},
      {"smiles": "Cn1cncn1", "pKa": 2.31},
      {"smiles": "Nc1c2c(ncn2Cc2ccccc2)nc[n+]1[O-]", "pKa": 2.4},
      {"smiles": "C[C@H](N)[C@H](C)[NH3+]", "pKa": 6.79},
      {"smiles": "CN(C)C", "pKa": 9.96},
      {"smiles": "CCOC(=O)c1cnc(N(C)C)s1", "pKa": 2.77},
      {"smiles": "CCCCCCCCCCCCN(CC(C)O)CC(O)CC", "note": "(stereo not drawn)", "pKa": 6.2},
      {"smiles": "Oc1cccc2nccnc12", "pKa": 0.85},
      {"smiles": "CCCCCCCCCCCCCCCC(=O)N[C@@H](Cc1c[nH]cn1)C(=O)[O-]", "pKa": 6.2},
      {"smiles": "CC(C)(C)c1cc(O)[nH]n1", "pKa": 2.9},
      {"smiles": "CNCCCCc1ccccc1", "pKa": 10.8},
      {"smiles": "NCCc1ccc(O)cc1", "pKa": 9.45},
      {"smiles": "CCn1cncn1", "pKa": 2.39},
      {"smiles": "Nc1ccc2nccnc2c1", "pKa": 2.95},
      {"smiles": "CCN(O)CC", "pKa": 5.62},
      {"smiles": "Cn1c(-c2ccccn2)nc2ccccc21", "pKa": 4.47},
      {"smiles": "Cc1ccc2nc(C)c3c(c2c1)OC(C)C3C", "note": "(stereo not drawn)", "pKa": 7.65},
      {"smiles": "O=C(CN1CCCCC1)NCc1ccccc1", "pKa": 7.71},
      {"smiles": "O=C([O-])CN(CC(=O)[O-])Cc1cc([N+](=O)[O-])ccc1[O-]", "pKa": 10.2},
      {"smiles": "Cc1cc(C)c2cccc(O)c2n1", "pKa": 6.2},
      {"smiles": "CC(C)(C)NC[C@H](O)COc1nsnc1N1CCOCC1", "pKa": 9.7},
      {"smiles": "Cc1n[nH]c2c(Nc3ccccc3)ncnc12", "pKa": 4.61},
      {"smiles": "Cc1[nH+]c2cccc(N)c2n1C", "pKa": 2.35},
      {"smiles": "CCCCN1CCCCC1", "pKa": 10.5},
      {"smiles": "Cn1nnnc1N", "pKa": 1.82},
      {"smiles": "Cc1cccc(/N=N/c2ccc(N)cc2)c1", "pKa": 2.88},
      {"smiles": "SCCNCCc1ccccc1", "pKa": 8.11},
      {"smiles": "N[C@H]1C[C@H]2CCCC[C@@H]2C[C@@H]1N", "pKa": 10.1},
      {"smiles": "C[NH+]1C[C@H](C(=O)O)C[C@@]2(O)c3cccc4[nH]cc(c34)C[C@H]12", "pKa": 3.94},
      {"smiles": "C1CNCCNCCNC1", "pKa": 11.7},
      {"smiles": "C#C[C@]1(O)C[C@H](C)N[C@@H]2CCCC[C@H]21", "pKa": 9.63},
      {"smiles": "CCNc1nc(N)nc(N)n1", "pKa": 5.23},
      {"smiles": "Nc1cc2ccccc2cc1[N+](=O)[O-]", "pKa": 1.48},
      {"smiles": "c1cn[nH]c1", "pKa": 2.61},
      {"smiles": "CC(=O)n1ccnc1C", "pKa": 5.03},
      {"smiles": "COc1cc2c(cc1OC)[C@]13CCN4CC5=CCO[C@@H]6CC(=O)N2[C@@H]1[C@@H]6[C@@H]5C[C@@H]43", "pKa": 5.86},
      {"smiles": "Sc1cccnc1", "pKa": 2.28},
      {"smiles": "c1csc(-c2nccs2)n1", "pKa": 2.76},
      {"smiles": "O=Cc1cc(-c2ccccc2)nnc1NCC[NH+]1CCOCC1", "pKa": 2.6},
      {"smiles": "CN(C)CC(=O)[O-]", "pKa": 9.81},
      {"smiles": "Cc1cc([O-])[n+](C)c([O-])n1", "pKa": 10.1},
      {"smiles": "O=C1CN2CCC1CC2", "pKa": 7.27},
      {"smiles": "Nc1nnnn1-c1ccc(Cl)cc1", "pKa": 0.78},
      {"smiles": "CNCC[NH2+]C", "pKa": 7.29},
      {"smiles": "CC(C)NCC(=O)c1ccc([O-])cc1", "pKa": 9.58},
      {"smiles": "CC(=O)C1C(=O)c2ccccc2C1=O", "pKa": 2.88},
      {"smiles": "CN1CCC=C(C(=O)[O-])C1", "pKa": 9.07},
      {"smiles": "CC(CC(C#N)(c1ccccc1)c1ccccc1)N1CCOCC1", "note": "(stereo not drawn)", "pKa": 6.1},
      {"smiles": "Cc1n[nH]c2c(N)ncnc12", "pKa": 5.02},
      {"smiles": "OCCCc1ccccn1", "pKa": 5.71},
      {"smiles": "NCc1ccc(O)cc1", "pKa": 9.14},
      {"smiles": "CCN(CC)CCC[NH+](CC)CC", "pKa": 8.2},
      {"smiles": "CCOC(=O)CCCN", "pKa": 9.71},
      {"smiles": "CCN(CC)c1ccc([N+](=O)[O-])cc1", "pKa": 1.7},
      {"smiles": "CCCCCN(CCO)CC(C)O", "note": "(stereo not drawn)", "pKa": 8.9},
      {"smiles": "O=C(Cc1ccccc1Nc1c(Cl)cccc1Cl)OCCN1CCOCC1", "pKa": 7.52}
    ]}
  ]
}
